Assay results taken from patent US4478828A, “Nonapeptide having immunostimulative activity, process for the preparation thereof, and its use” (Hoechst Aktiengesellschaft, priority 1982, dated 1984).
Square brackets hold non-standard residues; d marks the D form. Peptide text beside a SMILES is read from it. pGlu = O=C1CC[C@@H](C(=O)O)N1

Columns and labels:
spleen cells of mice = assay: Plaqueforming Cell Assay (PFC test), in vitro immunization with sheep erythrocytes; assay type: cell-based; conditions: for Plaques/10^6 cells: added daily, 5 days, control 768
Experimental: (§1) The nonapeptide of the invention was tested in the Plaqueforming Cell Assay (PFC test) and in the phythemagglutinin stimulation test (PHA test) for its lymphocyte-stimulative action.
In the PFC test, cell cultures of freshly dissected spleens of mice (2×10^7 spleen cells per ml) were prepared in RPMI 1640 and 30 μl of fetal calf serum (FCS) per ml of cell culture. In vitro immunization is carried out with 5×10^7 sheep erythrocytes/ml. The test cell cultures are incubated daily with the corresponding dose of the test substance. After a test period of 5 days, the cells are centrifuged off, washed with RPMI 1640 medium, and the direct PCF test is carried out as follows: The cells are mixed in an agarose solution with a 10% sheep erythrocyte suspension, and poured onto a plane surface. In the gel layer so formed the stimulated lymphocytes set free antibodies in the subsequent incubation which diffuse in the environment and adhere to the sheep erythrocytes present in these places. After addition of guinea pig complement the red blood cells lyse. Light-colored, circular spots are formed in the reddish-brown gel, which can be discerned with a naked eye, and which are the hemolysis halos of the plaques. In the center of such hemoylsis halos there is an antibody-producing cell. The number of lymphoid cells which form specific immunoglobulins can therefore be equalized with the plaque values found.

[1] = toxic effects on administration (general statement)
lymphocytes = assay: phythemagglutinin stimulation test (PHA test), 3H-thymidine incorporation; assay type: cell-based; conditions: for Stimulation index SI / Incorporation of 3H-thymidine: 20 μg PHA/ml, 72 hours; for Incorporation of 3H-thymidine: control 114 311
Experimental: as §1
The PHA test allows conclusions on the amount of mature, that is, stimulable, lymphocytes by means of the function test on stimulability with the phytolectin PHA. The lectin, like bacterial or viral antigens, incites the lymphocytes to a blast transformation. It causesd proliferation either directly or by induction of lymphokine secretion.
The incorporation of radioactive thymidine within a defined period of time is then the measure for the number of stimulated cells. The mature or immunologically potent T cells only are stimulated. Thus, the influence of a substance on the maturation of lymphocytes can be observed by means of this test. However, stimulation must remain below the optimum; for, at a higher concentration other subpopulations of lymphocytes are stimulated, too, and the effect cannot be observed any longer. The peptide of the invention was added to the culture medium in varying concentrations.

For `C[C@@H](O)[C@H](NC(=O)[C@H](CO)NC(=O)[C@H](CO)NC(=O)[C@H](CO)NC(=O)[C@H](CC(=O)O)NC(=O)[C@@H]1CCC(=O)N1)C(=O)NCC(=O)N[C@@H](Cc1c[nH]c2ccccc12)C(=O)N[C@@H](CC(N)=O)C(=O)O` [nonapeptide, L-pyroglutamyl-L-aspartyl-L-seryl-L-seryl-L-seryl-L-threonyl-glycyl-L-tryptophyl-L-asparagine] ([pGlu]DSSSTGWN-OH), the “Plaques/10^6 cells” value (spleen cells of mice; 1 ng/ml nonapeptide) was 908 Plaques/10^6 cells, the “Plaques/10^6 cells” value (spleen cells of mice; 10 ng/ml nonapeptide) was 1112 Plaques/10^6 cells and the “Plaques/10^6 cells” value (spleen cells of mice; 100 ng/ml nonapeptide) was 1024 Plaques/10^6 cells. The “Plaques/10^6 cells” value (spleen cells of mice; 1 μg/ml nonapeptide) was 817 Plaques/10^6 cells, the “Plaques/10^6 cells” value (spleen cells of mice; 5 μg/ml nonapeptide) was 802 Plaques/10^6 cells and the “stimulation of the lymphocytes depending on the dose” value (spleen cells of mice; PFC test, in words) was “bell-shaped curve”. For the same compound, the toxic effects [1] was “toxic effects have not been observed hitherto”, the “Stimulation index SI” value (lymphocytes; 0.0125 μg/ml nonapeptide) was 0.89 and the “Incorporation of 3H-thymidine” value (lymphocytes; 0.0125 μg/ml nonapeptide) was 101 594 cpm. The “Stimulation index SI” value (lymphocytes; 0.125 μg/ml nonapeptide) was 1.20, the “Incorporation of 3H-thymidine” value (lymphocytes; 0.125 μg/ml nonapeptide) was 137 519 cpm and the “Stimulation index SI” value (lymphocytes; 0.5 μg/ml nonapeptide) was 1.26. For the same compound, the “Incorporation of 3H-thymidine” value (lymphocytes; 0.5 μg/ml nonapeptide) was 143 831 cpm, the “Stimulation index SI” value (lymphocytes; 1.0 μg/ml nonapeptide) was 1.00 and the “Incorporation of 3H-thymidine” value (lymphocytes; 1.0 μg/ml nonapeptide) was 113 978 cpm. The “Stimulation index SI” value (lymphocytes; 5.0 μg/ml nonapeptide) was 0.94, the “Incorporation of 3H-thymidine” value (lymphocytes; 5.0 μg/ml nonapeptide) was 107 670 cpm and the “stimulation of the lymphocytes depending on the dose” value (lymphocytes; PHA test, in words) was “bell-shaped curve”.
